# Values of other authors as cited in patent publication US20090186826A1, “Cosmetic or dermopharmaceutical compositions of ceramides and polypeptides” (SEDERMA, priority 2003, published 2009).
# Where no end group is shown, it is not given here.
# Test system: fibroblasts
# Conditions: reported by Senior et al. J. Cell Biol. 99, 870-874, 1984
substance,measurement,value
VGVAPG [fragment of the protein called elastin],chemotactic activity,chemotactic activity
